Measurements: ChEMBL document CHEMBL5726363, “Indoline compounds as aldosterone synthase inhibitors” (2017)
pIC50: −log10 of the molar value.

Biological target: T1, Cytochrome P450 11B2, mitochondrial (Homo sapiens, UniProt P19099)
T1 sequence (P19099 whole entry): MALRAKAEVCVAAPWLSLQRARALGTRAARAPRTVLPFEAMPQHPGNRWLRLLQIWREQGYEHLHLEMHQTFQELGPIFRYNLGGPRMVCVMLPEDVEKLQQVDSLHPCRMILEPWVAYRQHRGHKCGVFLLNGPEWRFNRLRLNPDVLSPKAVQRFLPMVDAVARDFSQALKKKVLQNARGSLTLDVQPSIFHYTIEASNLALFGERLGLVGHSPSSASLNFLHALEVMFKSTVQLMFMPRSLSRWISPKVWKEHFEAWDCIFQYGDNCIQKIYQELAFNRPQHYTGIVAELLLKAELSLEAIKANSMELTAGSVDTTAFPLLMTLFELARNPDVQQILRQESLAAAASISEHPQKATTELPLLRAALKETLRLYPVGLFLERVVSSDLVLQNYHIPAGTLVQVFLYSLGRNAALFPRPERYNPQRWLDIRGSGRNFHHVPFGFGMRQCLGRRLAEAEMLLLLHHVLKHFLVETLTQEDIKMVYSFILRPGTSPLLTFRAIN
Test: HTRF-Based Assay : V79 cell lines stably expressing the either the human CYP11B2 or the human CYP11B1 enzyme were generated using a standard transfection protocol. V79 cells were transfected with plasmids pTriEx3-Hygro-hCyp11B2 or pTriEx3-Hygro-hCyp11B1 using Lipofectamine2000 reagent. V79 cells that stably express the human CYP11B2 or human CYP11B1 enzyme were selected for and maintained in DMEM supplemented with 10% FBS and 400 μg/mL hygromycin for 2 weeks. Single cell clones were generated by infinite dilution in DMEM supplemented with 10% FBS and 400 μg/mL hygromycin until single colonies were obtained. Clones V79-hCYP11B2-CLE9 and V79-hCYP11B1-CL8C7, were determined to produce the most aldosterone and cortisol, respectively, and were selected for inhibitor screening. For testing of inhibitors, cells were harvested at 80% confluency with 0.05% Trypsan-EDTA, washed once in PBS, and reconstituted in DMEM+0.1% BSA media at a cell concentration of 600,000 cells/mL for the CYP11B2 assay and 280,000 cells/mL for the CYP11B1 assay. 25 μL of cells were added to a 384 well tissue culture treated plate and mixed with 0.3 μL of inhibitor or DMSO (1% final DMSO concentration) for 1 hour at 37° C., 5% CO2. After pre-incubation with inhibitor, the reaction was initiated by adding 5 μL of substrate (final concentration of 125 nM 11-deoxycorticosterone for the CYP11B2 assay or 250 nM 11-deoxycortisol for the CYP11B1 assay). The reaction was carried out for 3 hours at 37° C., 5% CO2 and was stopped by harvesting the supernatants. The amount of product in the supernatant (aldosterone for CYP11B2 assay and cortisol for the CYP11B1 assay) was measured using HTRF-based assay kit (Aldosterone HTRF-CisBio#64ALDPEB, Cortisol HTRF-CisBio #63IDC002-CORT).

Row | SMILES | pIC50
1 | CC(C)C(=O)N1CCc2cc(-c3cncc4ccccc34)ccc21 | 7.52
2 | O=C(N1CCc2cc(-c3cncc(F)c3)cc(F)c21)C(F)(F)F | 7.76
3 | CC(=O)N1CCc2cc(-c3cncc(F)c3C)cc(Cl)c21 | 8.85
4 | O=C(N1CCc2cc(-c3cncc(F)c3)cc(Cl)c21)C(F)(F)F | 7.97
5 | CC(=O)N1CCc2cc(-c3cnccc3C)cc(F)c21 | 9.70
